From BindingDB's records for doi:10.1016/j.bmcl.2005.04.064 (Semmelweis University, 2005)

target: SRPK1 (Homo sapiens); experiment: In vitro inhibition of SR protein kinase 1 by compound dissolved in 100% DMSO using 5''-[gamma-33P]-triphosphate

| IC50 [nM] | Structure (SMILES) |
| --- | --- |
| 40 | O=C(O)c1ccc2cc3nc(-c4cccs4)c(-c4cccs4)nc3cc2c1 [2,3-Di-thiophen-2-yl-benzo[g]quinoxaline-7-carboxylic acid] |
| 1360 | c1csc(-c2nc3cc4ccccc4cc3nc2-c2cccs2)c1 [2,3-Di-thiophen-2-yl-benzo[g]quinoxaline] |
| 9610 | Oc1cc2nc(-c3cccs3)c(-c3cccs3)nc2cc1O [2,3-Di-thiophen-2-yl-quinoxaline-6,7-diol] |
| 870 | O=C(O)CCc1ccc(-c2nc3cc4ccccc4cc3nc2-c2ccc(CCC(=O)O)s2)s1 [3-(5-{3-[5-(2-Carboxy-ethyl)-thiophen-2-yl]-benzo[g]quinoxalin-2-yl}-thiophen-2-yl)-propionic acid] |
| 6130 | COC(=O)CCc1ccc(-c2nc3cc4ccccc4cc3nc2-c2ccc(CCC(=O)OC)s2)s1 [3-(5-{3-[5-(2-Methoxycarbonyl-ethyl)-thiophen-2-yl]-benzo[g]quinoxalin-2-yl}-thiophen-2-yl)-propionic acid methyl ester] |
| 820 | O=C(O)CCCc1ccc(-c2nc3cc4ccccc4cc3nc2-c2ccc(CCCC(=O)O)s2)s1 [4-(5-{3-[5-(3-Carboxy-propyl)-thiophen-2-yl]-benzo[g]quinoxalin-2-yl}-thiophen-2-yl)-butyric acid] |
| 950 | O=C(O)C1COc2cc3nc(-c4cccs4)c(-c4cccs4)nc3cc2O1 (stereo unspecified) [6,7-Di-thiophen-2-yl-2,3-dihydro-1,4-dioxa-5,8-diaza-anthracene-2-carboxylic acid] |
| 23400 | c1csc(-c2nc3cc4c(cc3nc2-c2cccs2)OCCO4)c1 [6,7-Di-thiophen-2-yl-2,3-dihydro-1,4-dioxa-5,8-diaza-anthracene] |
| 16300 | COc1cc2nc(-c3cccs3)c(-c3cccs3)nc2cc1OC [6,7-Dimethoxy-2,3-di-thiophen-2-yl-quinoxaline] |
| 1140 | COc1cc2nc3nc(-c4cccs4)c(-c4cccs4)nc3nc2cc1OC [7,8-Dimethoxy-2,3-di-thiophen-2-yl-pyrazino[2,3-b]quinoxaline] |
| 11800 | COC(=O)Cc1csc(-c2nc3cc4ccccc4cc3nc2-c2cc(CC(=O)OC)cs2)c1 [{5-[3-(4-Methoxycarbonylmethyl-thiophen-2-yl)-benzo[g]quinoxalin-2-yl]-thiophen-3-yl}-acetic acid methyl ester] |
